Assay results as given in US10662204B2 (PFIZER INC., priority 2018, dated 2020).
Each block holds one compound with its values, some of them ahead of it.

Assays:
[1] = target: T1, GDP-loaded KRAS (1-169) G12C, C51S, C80L, C118S (Homo sapiens, UniProt P01116, C118S/C51S/C80L/G12C); assay: Mass Spectrometry Reactivity Assay (MSRA): covalent adduct of compound and KRAS G12C, Percent Modification; type: binding; details: for MSRA (% modification) 5.0 μM 0.25 hr / MSRA (% modification) 5.0 μM 0.017 hr: 5.0 μM compound; for MSRA (% modification) 10 μM 0.25 hr / MSRA (% modification) 10 μM 0.50 hr: 10 μM compound
T1 construct: GDP-loaded KRAS (1-169) G12C, C51S, C80L, C118S
Procedure, shortened: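 Covalent labelling is measured by intact mass: deconvoluted modified and unmodified peak intensities yield percent modification. Compound, usually 5 μM or 10 μM final, reacts at room temperature with 5 μM GDP-bound KRAS G12C (1-169, C51S/C80L/C118S) in Hepes pH 7.5/NaCl/glycerol, sampled at 1, 15, 30, 60 min.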

[2] = target: KRAS G12C (Homo sapiens, UniProt P01116, G12C); assay: Cell Activity Assay: accumulation of GDP-bound KRAS G12C in MIAPaCa-2 cells (Raf-1 RBD capture, MSD readout); type: cell-based; parameters: endogenous in cells; host or cells: MIAPaCa-2; details: 6 hours, assay limit is 30.00
Procedure, shortened: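 IC50 came from a 4-parameter fit of Ras signal normalized between DMSO and full-inhibition controls. Readout: lysate GTP-Ras bound to immobilized Raf-1 RBD, quantified with pan-Ras antibody and MSD electrochemiluminescence. Lysates derived from MIAPaCa-2 cells treated 6 h with serially diluted compound, 0.3% DMSO.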

SMILES: C=CC(=O)N1CCN(c2nc(OCc3ccccn3)nc3c(Oc4c(Cl)c(F)cc5[nH]ncc45)nccc23)CC1 [Example 08H, 1-(4-{8-[(5-chloro-6-fluoro-1H-indazol-4-yl)oxy]-2-(pyridin-2-ylmethoxy)pyrido[3,4-d]pyrimidin-4-yl}piperazin-1-yl)prop-2-en-1-one]
MSRA (% modification) 5.0 μM 0.25 hr [1]: 36%
IC50 [2]: 0.491 µM

SMILES: [2H]C([2H])([2H])N1C[C@@H](OC)[C@H](Oc2nc(N3CCN(C(=O)C=C)CC3)c3ccnc(Oc4c(Cl)c(F)cc5[nH]ncc45)c3n2)C1 [Example 56I, 1-[4-(8-[(5-chloro-6-fluoro-1H-indazol-4-yl)oxy]-2-{[(3R,4R)-4-methoxy-1-(^2H3)methyl-pyrrolidin-3-yl]oxy}pyrido [3,4-d]pyrimidin-4-yl)piperazin-1-yl]prop-2-en-1-one]
MSRA (% modification) 5.0 μM 0.017 hr [1]: 81%
IC50 [2]: 0.04 µM

SMILES: C=CC(=O)N1CCN(c2nc(NCC3CC(=O)N(C)C3)nc3c(Oc4c(C)ccc5[nH]ncc45)cccc23)CC1 (stereo not drawn) [Example 04F, 4-[({4-(4-acryloylpiperazin-1-yl)-8-[(5-methyl-1H-indazol-4-yl)oxy]quinazolin-2-yl}amino)methyl]-1-methylpyrrolidin-2-one]
MSRA (% modification) 10 μM 0.50 hr [1]: 43%
IC50 [2]: 7.28 µM

SMILES: C=CC(=O)N1CCN(c2ncnc3c(Oc4c(Cl)ccc5[nH]ncc45)nc(C)cc23)CC1 [Example 05A, 1-(4-{8-[(5-chloro-1H-indazol-4-yl)oxy]-6-methylpyrido[3,4-d]pyrimidin-4-yl}piperazin-1-yl)prop-2-en-1-one]
MSRA (% modification) 10 μM 0.50 hr [1]: 12%
IC50 [2]: 8.41 µM

SMILES: C=CC(=O)N1CCN(c2nc(NCCC(=O)N(C)C)nc3c(Oc4c(C)ccc5[nH]ncc45)cccc23)CC1 [Example 06F, N^3-{4-(4-acryloylpiperazin-1-yl)-8-[(5-methyl-1H-indazol-4-yl)oxy]quinazolin-2-yl}-N,N-dimethyl-β-alaninamide]
MSRA (% modification) 10 μM 0.50 hr [1]: 46%
IC50 [2]: 3.24 µM

SMILES: C=CC(=O)N1CCN(c2nc(N(C)CCC(=O)N(C)C)nc3c(Oc4c(C)ccc5[nH]ncc45)cccc23)CC1 [Example 05F, N^3-{4-(4-acryloylpiperazin-1-yl)-8-[(5-methyl-1H-indazol-4-yl)oxy]quinazolin-2-yl}-N,N,N^3-trimethyl-β-alaninamide]
MSRA (% modification) 10 μM 0.50 hr [1]: 22%
IC50 [2]: 28.5 µM

SMILES: C=CC(=O)N1CCN(c2nc(OC[C@H]3COCCN3C)nc3c(Oc4c(Cl)c(F)cc5[nH]ncc45)nc(Cl)cc23)CC1 [Example 08G, 1-[4-(6-chloro-8-[(5-chloro-6-fluoro-1H-indazol-4-yl)oxy]-2-{[(3R)-4-methylmorpholin-3-yl]methoxy}pyrido[3,4-d]pyrimidin-4-yl)piperazin-1-yl]prop-2-en-1-one]
MSRA (% modification) 10 μM 0.25 hr [1]: 80%
IC50 [2]: 0.148 µM

SMILES: C=CC(=O)N1CCN(c2nc(OCC3CCC(=O)N3C)nc3c(Oc4c(Cl)c(F)cc5[nH]ncc45)nc(Cl)cc23)CC1 (stereo not drawn) [Example 14G, 5-[({4-(4-acryloylpiperazin-1-yl)-6-chloro-8-[(5-chloro-6-fluoro-1H-indazol-4-yl)oxy]pyrido[3,4-d]pyrimidin-2-yl}oxy)methyl]-1-methylpyrrolidin-2-one]
MSRA (% modification) 5.0 μM 0.25 hr [1]: 78%
MSRA (% modification) 10 μM 0.25 hr [1]: 79%
IC50 [2]: 0.401 µM

SMILES: C=CC(=O)N1CCN(c2nc(O[C@@H]3CN(C(C)(C)C)C[C@H]3OC)nc3c(Oc4c(Cl)c(F)cc5[nH]ncc45)nccc23)CC1 [Example 52I, 1-[4-(2-{[(3R,4R)-1-tert-butyl-4-methoxy-pyrrolidin-3-yl]oxy}-8-[(5-chloro-6-fluoro-1H-indazol-4-yl)oxy]pyrido [3,4-d]pyrimidin-4-yl)piperazin-1-yl]prop-2-en-1-one]
MSRA (% modification) 5.0 μM 0.017 hr [1]: 81%
IC50 [2]: 0.023 µM

SMILES: C=CC(=O)N1CCN(c2nc(OC[C@]3(F)CCN(C)C3)nc3c(Oc4c(Cl)c(F)cc5[nH]ncc45)nccc23)CC1 [Example 14H, 1-[4-(8-[(5-chloro-6-fluoro-1H-indazol-4-yl)oxy]-2-{[(3S)-3-fluoro-1-methylpyrrolidin-3-yl]methoxy}pyrido[3,4-d]pyrimidin-4-yl)piperazin-1-yl]prop-2-en-1-one]
MSRA (% modification) 5.0 μM 0.25 hr [1]: 52%
MSRA (% modification) 10 μM 0.25 hr [1]: 81%
IC50 [2]: 0.082 µM

SMILES: C=CC(=O)N1CCN(c2nc(OCC3CC(=O)N(C)C3)nc3c(Oc4c(Cl)c(F)cc5[nH]ncc45)nccc23)CC1 (stereo not drawn) [Example 03J, 4-[({4-(4-acryloylpiperazin-1-yl)-8-[(5-chloro-6-fluoro-1H-indazol-4-yl)oxy]pyrido[3,4-d]pyrimidin-2-yl}oxy)methyl]-1-methylpyrrolidin-2-one]
MSRA (% modification) 5.0 μM 0.25 hr [1]: 77%
IC50 [2]: 0.855 µM

SMILES: C=CC(=O)N1CCN(c2nc(OC[C@@H]3CCCN3C)nc3c(Oc4c(C)c(F)cc5[nH]ncc45)nccc23)CC1 [Example 04I, 1-[4-(8-[(6-fluoro-5-methyl-1H-indazol-4-yl)oxy]-2-{[(2S)-1-methyl-pyrrolidin-2-yl]methoxy}pyrido [3,4-d]pyrimidin-4-yl)piperazin-1-yl]prop-2-en-1-one]
MSRA (% modification) 5.0 μM 0.25 hr [1]: 55%
IC50 [2]: 0.375 µM

Now from value to compound:

MSRA (% modification) 5.0 μM 0.017 hr [1]: 47%
IC50 [2]: 0.063 µM
SMILES: C=CC(=O)N1CCN(c2nc(O[C@@H]3CCN(C)C[C@H]3C)nc3c(Oc4c(Cl)c(F)cc5[nH]ncc45)nc(Cl)cc23)CC1 (racemic) [Example 34G, rac-1-[4-(6-chloro-8-[(5-chloro-6-fluoro-1H-indazol-4-yl)oxy]-2-{[(3R,4R)-1,3-dimethylpiperidin-4-yl]oxy}pyrido[3,4-d]pyrimidin-4-yl)piperazin-1-yl]prop-2-en-1-one]

MSRA (% modification) 10 μM 0.25 hr [1]: 33%
IC50 [2]: 29.8 µM
SMILES: C=CC(=O)N1CCN(c2nc(OC[C@H]3CCN(C)C3)nc3c(Oc4c(C)ccc5[nH]ncc45)nccc23)CC1 [Example 19E, 1-[4-(8-[(5-methyl-1H-indazol-4-yl)oxy]-2-{[(3S)-1-methylpyrrolidin-3-yl]methoxy}pyrido[3,4-d]pyrimidin-4-yl)piperazin-1-yl]prop-2-en-1-one]

MSRA (% modification) 10 μM 0.50 hr [1]: 79%
IC50 [2]: 0.171 µM
SMILES: C=CC(=O)N1CCN(c2ncnc3c(Oc4c(C)c(Cl)cc5[nH]ncc45)nc(Cl)cc23)CC1 [Example 31A, 1-(4-{6-chloro-8-[(6-chloro-5-methyl-1H-indazol-4-yl)oxy]pyrido[3,4-d]pyrimidin-4-yl}piperazin-1-yl)prop-2-en-1-one]

MSRA (% modification) 5.0 μM 0.25 hr [1]: 22%
MSRA (% modification) 10 μM 0.25 hr [1]: 74%
MSRA (% modification) 10 μM 0.50 hr [1]: 75%
IC50 [2]: 21.2 µM
SMILES: C=CC(=O)N1CCN(c2nc(OCc3nncn3C)nc3c(Oc4c(C)ccc5[nH]ncc45)cccc23)CC1 [Example 07F, 1-(4-{8-[(5-methyl-1H-indazol-4-yl)oxy]-2-[(4-methyl-4H-1,2,4-triazol-3-yl)methoxy]quinazolin-4-yl}piperazin-1-yl)prop-2-en-1-one]

MSRA (% modification) 10 μM 0.50 hr [1]: 16%
IC50 [2]: > 30 µM
SMILES: C=CC(=O)N1CCN(c2nc(NCCc3nncn3C)nc3c(Oc4c(C)ccc5[nH]ncc45)cccc23)CC1 [Example 16F, 1-[4-(8-[(5-methyl-1H-indazol-4-yl)oxy]-2-{[2-(4-methyl-4H-1,2,4-triazol-3-yl)ethyl]amino}quinazolin-4-yl)piperazin-1-yl]prop-2-en-1-one]

MSRA (% modification) 5.0 μM 0.017 hr [1]: 82%
IC50 [2]: 0.005 µM
SMILES: C=CC(=O)N1CCN(c2nc(Oc3cccc4c3CCN(CC)C4)nc3c(Oc4c(Cl)c(F)cc5[nH]ncc45)nccc23)CC1 [Example 17I, 1-(4-{8-[(5-chloro-6-fluoro-1H-indazol-4-yl)oxy]-2-[(2-ethyl-1,2,3,4-tetrahydro-isoquinolin-5-yl)oxy]pyrido [3,4-d]pyrimidin-4-yl}piperazin-1-yl)prop-2-en-1-one]

MSRA (% modification) 10 μM 0.50 hr [1]: 24%
IC50 [2]: 2.6 µM
SMILES: C=CC(=O)N1CCN(c2ncnc3c(Oc4c(Cl)c(F)cc5[nH]ncc45)cccc23)C[C@H]1C [Example 17C, 1-[(2R)-4-{8-[(5-chloro-6-fluoro-1H-indazol-4-yl)oxy]quinazolin-4-yl}-2-methylpiperazin-1-yl]prop-2-en-1-one]

MSRA (% modification) 10 μM 0.25 hr [1]: 43%
IC50 [2]: 3.1 µM
SMILES: C=CC(=O)N1CCN(c2nc(OC[C@H]3CCCN3C)nc3c(Oc4c(C)ccc5[nH]ncc45)nccc23)CC1 [Example 09B, 1-[4-(8-[(5-methyl-1H-indazol-4-yl)oxy]-2-{[(2R)-1-methylpyrrolidin-2-yl]methoxy}pyrido[3,4-d]pyrimidin-4-yl)piperazin-1-yl]prop-2-en-1-one]

MSRA (% modification) 10 μM 0.50 hr [1]: 12%
IC50 [2]: 4.66 µM
SMILES: C=CC(=O)N1CCN(c2ncnc3c(Cc4c(C)ccc5[nH]ncc45)nccc23)CC1 [Example 02D, 1-(4-{8-[(5-methyl-1H-indazol-4-yl)methyl]pyrido[3,4-d]pyrimidin-4-yl}piperazin-1-yl)prop-2-en-1-one]

MSRA (% modification) 5.0 μM 0.017 hr [1]: 19%
IC50 [2]: 0.168 µM
SMILES: C=CC(=O)N1CCN(c2nc(O[C@@H]3CN(C)C[C@H]3OCC(F)F)nc3c(Oc4c(Cl)c(F)cc5[nH]ncc45)nccc23)CC1 (racemic) [Example 32I, rac-1-[4-(8-[(5-chloro-6-fluoro-1H-indazol-4-yl)oxy]-2-{[(3R,4R)-4-(2,2-difluoro-ethoxy)-1-methyl-pyrrolidin-3-yl]oxy}pyrido [3,4-d]pyrimidin-4-yl)piperazin-1-yl]prop-2-en-1-one]
